Laboratory results from article PMC6837341, “Evolutionarily conserved susceptibility of the mitochondrial respiratory chain to SDHI pesticides and its consequence on the impact of SDHIs on human cultured cells” (PLoS ONE, 2019).
Where two headings read alike, the source gives them in different places.

Assays:
Format in all cases: biochemical
[1] = target: T1, glycerol-3-phosphate cytochrome c reductase (G3PDH+CIII) (Homo sapiens, UniProt P00156); test: Glycerol-3-phosphate cytochrome c reductase (GCCR) activity, freeze-thawed HEK cells
T1 construct: the pellets were permeabilized by two freeze-thaw cycles before enzyme assays; endogenous in cells; host or cells: HEK293, freeze-thawed cell pellets
Experimental: (§1) The cells were grown in T75 flasks using 10 ml Dulbecco’s modified Eagle's minimal essential medium (DMEM) either containing 1 or 4.5 g/l glucose, 4 mM glutamine (glutamax; Gibco Thermo Fisher Scientific, MA), 2 mM pyruvate and 200 μM uridine (permissive medium, thereafter referred as GlucoMax) or lacking glucose, pyruvate and uridine but containing 4 mM glutamine (nonpermissive medium, thereafter referred as MitoMax; S1 Table). All media were supplemented with 10% fetal calf serum and 100 U/mL each penicillin and streptomycin. HEK293 human embryonic kidney cells were cultured in DMEM containing 4.5 g/L glucose, 4 mM glutamine, 10% fetal calf serum, 200 μM uridine, 2 mM pyruvate, and 100 U/mL each penicillin and streptomycin [9]. Cell pellets (1,500 g for 5 min) were kept frozen (-80°C), and for biochemical studies, the pellets were permeabilized by two freeze-thaw cycles before enzyme assays.
(§2) RC enzyme activities were spectrophotometrically measured using a pseudo-double-wavelength spectrophotometer (Cary 60, Agilent). Malonate-sensitive succinate quinone dichlorophenolindophenol (DCPIP) reductase (SQDR), as an indicator of the activity of the isolated SDH enzyme (isolated CII), and glycerol-3-phosphate quinone DCPIP reductase (GQDR), as a measure of the activity of the isolated glycerol-3-phosphate dehydrogenase (G3PDH), were assayed as previously described. To study the effect of SDHIs on the RC, we had to take into consideration the fact that these inhibitors act through binding to quinone-binding sites in the RC. Accordingly, we observed that the extent of the inhibitory effects of these substances varies with the addition of exogenous quinones (Fig 1). […] With this aim, we measured the malonate-sensitive succinate cytochrome c reductase (SDH+CIII), glycerol-3-phosphate cytochrome c reductase (G3PDH+CIII) and antimycin-sensitive quinol cytochrome c reductase (CIII) as previously described.
(§3) The effects of eight different SDHIs (up to 500 μM; S2 Fig) were determined on four different biological materials. Because IC50 are known to be affected by the actual absolute activity of the tested enzyme, these IC50 were quantified using similar levels of SDH enzyme activity during the assay. IC50 values were determined using the AAT Bioquest IC50 calculator tool (https://www.aatbio.com/tools/ic50-calculator).

[2] = target: succinate cytochrome c reductase (SDH+CIII); test: SCCR activity, earthworm homogenate; settings: Lumbricus terrestris homogenate
Experimental: L. terrestris individuals (n = 5) were collected manually in a household compost in Epernon (France 28230) and identified by the person (Paule Bénit) in charge of this compost. Before use, the worms were washed 5 times with 1× phosphate-buffered saline. A fresh homogenate was prepared from the segments located between the prostomium and clitellum of the 5 individuals. Tissues were placed in 500 μl of an ice-cold medium consisting of 20 mM Tris (pH 7.2), 0.25 M sucrose, 40 mM KCl, 2 mM EGTA, and 1 mg/ml BSA and homogenized using a 1-ml glass-glass Potter-Elvehjem homogenizer. Low-speed centrifugation at 1,500 g for 5 min allowed heavy debris to be discarded. The supernatant was distributed as 50-μl aliquots and kept frozen at -80°C.
as §2, with “described.” for “described. To study the effect of SDHIs on the RC, we had to take into consideration the fact that these inhibitors act through binding to quinone-binding sites in the RC. Accordingly, we observed that the extent of the inhibitory effects of these substances varies with the addition of exogenous quinones (Fig 1).”
as §3

[3] = target: T2, quinol cytochrome c reductase (CIII) (Botrytis cinerea, UniProt Q18ND9); test: QCCR activity, Botrytis cinerea mitochondria
T2 sequence (Q18ND9 1-391): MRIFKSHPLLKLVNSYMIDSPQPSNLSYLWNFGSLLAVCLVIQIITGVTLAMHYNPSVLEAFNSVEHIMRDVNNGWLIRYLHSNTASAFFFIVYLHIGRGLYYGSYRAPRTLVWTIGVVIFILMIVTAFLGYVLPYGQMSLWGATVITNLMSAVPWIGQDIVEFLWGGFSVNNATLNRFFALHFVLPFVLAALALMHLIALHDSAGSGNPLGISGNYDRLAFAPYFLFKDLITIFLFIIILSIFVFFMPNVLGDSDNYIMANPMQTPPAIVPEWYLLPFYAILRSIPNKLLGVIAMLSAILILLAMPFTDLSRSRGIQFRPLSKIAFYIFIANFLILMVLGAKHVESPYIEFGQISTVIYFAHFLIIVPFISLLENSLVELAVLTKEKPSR
Experimental: The mixed population of B. cinerea fungi used in this study was kindly provided by Dr. Joelle Dupont (Museum National d’Histoire Naturelle, Paris, France). Conidia from Botrytis cinerea were obtained from 15–30 d cultures grown on malt medium agar plates. Mycelial colonies were prepared by seeding conidia from 10 colonies in liquid medium (10 g of glucose, 2 g of KH2PO4, 0.5 g of MgSO47H2O, 1 g of (NH4)2SO4, 2 g of yeast extract and deionized water up to 1 l, pH 6.2). Incubation was performed at 23°C until hyphae totally covered the surface of the bottle. The hyphae (9-cm-diameter disks) were harvested, washed twice with refrigerated distilled water and finally with mitochondria extraction medium containing 20 mM Tris (pH 7.2), 0.25 M sucrose, 40 mM KCl, 2 mM EGTA, 1 mg/ml BSA, and no cysteine. The hyphae were suspended in 150 ml of extraction medium, cut in small pieces (1 cm^2) and then disrupted at high speed for 1×2 sec and at low speed for 2×3 sec using a MultiMoulinex mixer (Moulinex, France). The suspension of disrupted hyphae was then filtered through two layers of nylon cloth (clearance 150 μm). The cloth was washed with 50 ml of extraction medium. After low-speed centrifugation (700 g for 15 min), the mitochondria were collected at 10,000 g for 20 min. The pellet was suspended in 250 μl of extraction medium, aliquoted (± 30 μl) and kept frozen at -80°C.
as §2, with “described.” for “described. To study the effect of SDHIs on the RC, we had to take into consideration the fact that these inhibitors act through binding to quinone-binding sites in the RC. Accordingly, we observed that the extent of the inhibitory effects of these substances varies with the addition of exogenous quinones (Fig 1).”
as §3

[4] = target: T3, quinol cytochrome c reductase (CIII) (Homo sapiens, UniProt P00156); test: Antimycin-sensitive quinol cytochrome c reductase (QCCR) activity, freeze-thawed HEK cells
T3 construct: the pellets were permeabilized by two freeze-thaw cycles before enzyme assays; endogenous in cells; host or cells: HEK293, freeze-thawed cell pellets
Experimental: as §1, §2, §3

[5] = target: succinate cytochrome c reductase (SDH+CIII) (Homo sapiens, UniProt O14521+P21912+Q99643); test: Malonate-sensitive succinate cytochrome c reductase (SCCR) activity, freeze-thawed HEK cells; parameters: the pellets were permeabilized by two freeze-thaw cycles before enzyme assays; endogenous in cells; host or cells: HEK293, freeze-thawed cell pellets; settings: no exogenous quinone
succinate cytochrome c reductase (SDH+CIII) (Homo sapiens, UniProt O14521+P21912+Q99643), sequence (P21912 29-280): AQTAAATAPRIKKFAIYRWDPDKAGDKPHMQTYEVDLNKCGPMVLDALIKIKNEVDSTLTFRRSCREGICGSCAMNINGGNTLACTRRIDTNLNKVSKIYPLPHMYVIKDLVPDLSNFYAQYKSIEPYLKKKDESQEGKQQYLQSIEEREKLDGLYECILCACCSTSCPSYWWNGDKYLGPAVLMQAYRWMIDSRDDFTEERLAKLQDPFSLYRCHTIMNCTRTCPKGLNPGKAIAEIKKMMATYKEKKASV
succinate cytochrome c reductase (SDH+CIII) (Homo sapiens, UniProt O14521+P21912+Q99643), sequence (Q99643 30-169): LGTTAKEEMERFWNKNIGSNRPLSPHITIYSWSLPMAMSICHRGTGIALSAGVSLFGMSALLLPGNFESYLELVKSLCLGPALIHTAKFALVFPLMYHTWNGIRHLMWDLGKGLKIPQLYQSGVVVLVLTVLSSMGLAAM
succinate cytochrome c reductase (SDH+CIII) (Homo sapiens, UniProt O14521+P21912+Q99643), sequence (O14521 57-159): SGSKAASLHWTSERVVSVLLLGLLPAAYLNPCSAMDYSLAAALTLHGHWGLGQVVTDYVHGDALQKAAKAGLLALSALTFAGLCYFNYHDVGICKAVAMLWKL
succinate cytochrome c reductase (SDH+CIII) (Homo sapiens, UniProt O14521+P21912+Q99643), sequence (P31040 43-664 partner): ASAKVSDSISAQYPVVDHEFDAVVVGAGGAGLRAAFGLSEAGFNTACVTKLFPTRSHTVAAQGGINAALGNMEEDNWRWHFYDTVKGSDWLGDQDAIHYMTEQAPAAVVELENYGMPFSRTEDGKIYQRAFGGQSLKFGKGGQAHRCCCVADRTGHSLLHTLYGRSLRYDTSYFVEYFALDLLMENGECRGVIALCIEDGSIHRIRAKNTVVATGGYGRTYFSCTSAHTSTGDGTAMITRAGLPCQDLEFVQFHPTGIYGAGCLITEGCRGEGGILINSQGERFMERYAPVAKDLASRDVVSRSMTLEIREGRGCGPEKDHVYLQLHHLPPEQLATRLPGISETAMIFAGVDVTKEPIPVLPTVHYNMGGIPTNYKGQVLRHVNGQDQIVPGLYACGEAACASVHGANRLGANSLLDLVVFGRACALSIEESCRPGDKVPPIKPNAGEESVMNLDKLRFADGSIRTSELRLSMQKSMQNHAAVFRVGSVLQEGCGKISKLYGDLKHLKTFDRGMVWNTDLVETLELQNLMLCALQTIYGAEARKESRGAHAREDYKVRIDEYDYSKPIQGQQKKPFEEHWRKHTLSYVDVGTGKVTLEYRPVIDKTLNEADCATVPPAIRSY
Experimental: as §1, §2, §3

[6] = Homo sapiens, freeze-thawed HEK cells, read-out: IC50 GCCR
[7] = CIII values only indicative, read-out: IC50 QCCR
[8] = Homo sapiens, freeze-thawed HEK cells, CIII values only indicative (reduced quinone added), read-out: IC50 QCCR
[9] = read-out: IC50 QCCR, CIII values only indicative

SMILES	IC50 [1, 6] [µM]	IC50 [2] [µM]	IC50 [3, 7] [µM]	IC50 [4, 8] [µM]	IC50 ([5]; n ≥ 3, listed as bixafen, read-out: IC50 SCCR) [µM]	IC50 ([5]; n ≥ 3, read-out: IC50 SCCR) [µM]	IC50 [1] [µM]	IC50 [3, 9] [µM]	IC50 [4] [µM]	IC50 ([5]; IC50 SCCR, n ≥ 3) [µM]	IC50 ([5]; n ≥ 3, listed as isopyrazam, read-out: IC50 SCCR) [µM]	IC50 ([5]; n ≥ 3, listed as penflufen, read-out: IC50 SCCR) [µM]
Cn1cc(C(=O)Nc2ccc(F)cc2-c2ccc(Cl)c(Cl)c2)c(C(F)F)n1 [Bixafen, bixafen]	21.1	6	22.2	15.5	≤ 1	0.34	–	–	–	–	–	–
O=C(Nc1ccccc1-c1ccc(Cl)cc1)c1cccnc1Cl [Boscalid, boscalid]	–	0.5	–	–	–	–	> 500	> 500	> 500	4.8	–	–
CC(C)Oc1cccc(NC(=O)c2ccccc2C(F)(F)F)c1 [Flutolanil, flutolanil]	> 500	0.36	–	> 500	–	18.7	–	> 500	–	–	–	–
Cn1cc(C(=O)Nc2ccccc2-c2cc(F)c(F)c(F)c2)c(C(F)F)n1 [Fluxapyroxad, fluxapyroxad]	> 500	0.71	67	> 500	–	2.1	–	–	–	–	–	–
CC(C)C1C2CCC1c1c(NC(=O)c3cn(C)nc3C(F)F)cccc12 (centres unmarked) [Isopyrazam, isopyrazam]	51.3	0.46	14.2	125	–	0.63	–	–	–	–	≤ 1	–
Cc1nn(C)c(F)c1C(=O)Nc1ccccc1C(C)CC(C)C (centres unmarked) [Penflufen, penflufen]	> 500	1.13	433	> 500	–	1.3	–	–	–	–	–	≤ 1
CC(C)CC(C)c1sccc1NC(=O)c1cn(C)nc1C(F)(F)F (centres unmarked) [Penthiopyrad, penthiopyrad]	–	0.7	–	–	–	–	211	105	349	3.7	–	–
